# According to patent publication US20260217767A1, “NOVEL A4B7 THIOETHER PEPTIDE DIMER ANTAGONISTS” (Protagonist Therapeutics, Inc., priority 2014, published 2026):
# Where two headings read alike, the source gives them in different places. *1 amine or outer side, *2 acyl side, *3 side chain or, on linkers, in order; H or OH if unused. Where a SMILES comes first, the peptide text is derived from it. Bridges are numbered along the chain shown (N, C = ends). Roman numbers before positions name the chains, in order. [ ]: non-standard residue; d: D form. Phe(3-Me) = Cc1cccc(C[C@H](N)C(=O)O)c1; Phe(4-Me) = Cc1ccc(C[C@H](N)C(=O)O)cc1; 2Nal = N[C@@H](Cc1ccc2ccccc2c1)C(=O)O; Diglycolyl = O=C(COCC(=O)[*:2])[*:1]; NMeR = CN[C@@H](CCCNC(=N)N)C(=O)O; Tic = O=C(O)[C@@H]1Cc2ccccc2CN1; β3hE = N[C@@H](CCC(=O)O)CC(=O)O; X1 = O=C(c1ccccc1C[*:2])[*:1]; Pen = CC(C)(S)[C@H](N)C(=O)O
# What was measured:
# [1] = Simulated Intestinal Fluid (SIF) Stability Assay; type: in vitro ADME; details: pig, 37° C.; for half-life: porcine pancreatin; for half-life at 22 μM: simulated intestinal fluid (SIF) with 1% porcine pancreatin, pH 6.5, porcine pancreatin
# Experimental: Simulated Intestinal Fluid (SIF) Stability Assay
# Studies were carried out in simulated intestinal fluid (SIF) to evaluate intestinal stability of the peptide molecules of the instant invention. To prepare the SIF reagent, blank FASSIF was prepared by dissolving 0.348 g NaOH, 3.954 g sodium phosphate monobasic monohydrate and 6.186 g NaCl in a final volume of 1 liter water (final pH=6.5). To this solution, 24 g porcine pancreatin (Sigma catalog P7545) was added and stirred for 30 minutes (final pancreatin concentration is 2.4%). The solution was filtered through a cheese cloth and a No. 1 Whatman filter, and 10 ml aliquots were stored at −70° C. To run the reaction, a 10 ml aliquot was thawed at 37° C., and 125 μl aliquots were removed and mixed with an equal volume of blank FASSIF. The peptide stock solution (10 mM in 100% DMSO) was diluted 75-fold in blank FASSIF. A 50 μl aliquot of the diluted peptide was combined with 125 μl pancreatin (2.4%) and 125 μl blank FASSIF to yield final concentrations of 1% pancreatin and 22 μM peptide. The reactions were incubated at 37° C., and at various time points 50 μl aliquots were removed and added to 200 μl of quench solution containing 50% acetonitrile, 50% methanol, 5% formic acid, and 1 μg/ml internal standard. The quenched samples were centrifuged at 10,000 rpm for 10 minutes, and the supernatants were analyzed by LCMS/MS. The percent remaining at each time point was calculated based on the peak area response ratio of test to compound to internal standard. Half-lives were calculated by fitting to a first-order exponential decay equation using GraphPad. A small sampling of the results of these studies is provided and discussed herein and in the accompanying figures.
# RPMI 8866 cells = biological target: T1, RPMI 8866 cells (Homo sapiens, UniProt P13612+P26010); experiment: α4β7-MAdCAM Cell Adhesion Assay; type: cell-based; details: read-out: Cell-Adhesion A4B7
# T1 sequence (P13612 34-1032): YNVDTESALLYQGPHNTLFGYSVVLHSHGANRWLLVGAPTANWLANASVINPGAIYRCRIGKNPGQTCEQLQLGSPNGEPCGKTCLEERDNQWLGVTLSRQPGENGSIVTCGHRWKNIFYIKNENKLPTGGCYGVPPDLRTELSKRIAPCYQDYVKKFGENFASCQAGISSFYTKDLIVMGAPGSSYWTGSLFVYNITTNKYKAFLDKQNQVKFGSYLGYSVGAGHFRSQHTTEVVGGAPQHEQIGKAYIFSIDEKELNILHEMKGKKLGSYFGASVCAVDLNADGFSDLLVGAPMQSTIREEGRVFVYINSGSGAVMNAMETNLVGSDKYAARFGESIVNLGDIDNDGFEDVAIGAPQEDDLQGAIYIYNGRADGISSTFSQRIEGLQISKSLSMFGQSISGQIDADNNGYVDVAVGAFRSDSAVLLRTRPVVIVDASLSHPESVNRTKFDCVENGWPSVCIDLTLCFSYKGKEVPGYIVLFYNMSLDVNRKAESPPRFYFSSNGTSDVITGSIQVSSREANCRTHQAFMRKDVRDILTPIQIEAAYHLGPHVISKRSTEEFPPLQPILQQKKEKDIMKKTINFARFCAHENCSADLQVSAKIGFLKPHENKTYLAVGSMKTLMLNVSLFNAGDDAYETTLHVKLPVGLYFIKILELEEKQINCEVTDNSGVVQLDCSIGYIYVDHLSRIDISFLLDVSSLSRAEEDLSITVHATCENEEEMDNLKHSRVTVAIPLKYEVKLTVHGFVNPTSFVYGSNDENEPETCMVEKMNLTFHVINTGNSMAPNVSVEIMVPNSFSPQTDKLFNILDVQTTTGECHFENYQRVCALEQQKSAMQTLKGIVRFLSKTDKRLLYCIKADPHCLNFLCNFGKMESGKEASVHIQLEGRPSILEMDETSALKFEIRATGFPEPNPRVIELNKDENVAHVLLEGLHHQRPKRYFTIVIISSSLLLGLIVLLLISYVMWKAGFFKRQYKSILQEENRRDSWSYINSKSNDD
# T1 sequence (P26010 20-798): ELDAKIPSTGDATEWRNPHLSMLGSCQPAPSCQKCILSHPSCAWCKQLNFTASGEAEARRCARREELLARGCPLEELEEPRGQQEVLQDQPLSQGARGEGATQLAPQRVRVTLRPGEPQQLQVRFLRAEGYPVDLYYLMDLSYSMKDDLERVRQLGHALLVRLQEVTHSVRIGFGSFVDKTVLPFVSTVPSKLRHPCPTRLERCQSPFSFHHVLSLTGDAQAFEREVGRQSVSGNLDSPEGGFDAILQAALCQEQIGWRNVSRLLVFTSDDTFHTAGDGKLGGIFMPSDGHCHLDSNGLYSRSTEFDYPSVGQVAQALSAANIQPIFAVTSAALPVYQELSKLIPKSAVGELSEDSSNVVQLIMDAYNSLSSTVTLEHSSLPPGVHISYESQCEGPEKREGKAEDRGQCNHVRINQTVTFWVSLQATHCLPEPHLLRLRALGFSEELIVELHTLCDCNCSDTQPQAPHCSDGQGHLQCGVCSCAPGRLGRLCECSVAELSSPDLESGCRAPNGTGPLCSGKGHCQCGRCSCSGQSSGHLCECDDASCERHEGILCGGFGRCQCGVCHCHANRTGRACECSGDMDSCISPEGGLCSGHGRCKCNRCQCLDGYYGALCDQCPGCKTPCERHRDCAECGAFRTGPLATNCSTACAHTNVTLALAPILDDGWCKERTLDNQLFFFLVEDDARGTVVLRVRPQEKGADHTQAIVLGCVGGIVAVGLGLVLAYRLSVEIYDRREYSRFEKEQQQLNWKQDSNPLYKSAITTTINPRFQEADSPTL
# Outline: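 Peptide inhibition of adhesion measured with MAdCAM-1/Fc chimera immobilised at 200 ng/well and MnCl2-activated (1 mM) RPMI 8866 cells, 30-45 min at 37° C. Adherent cells remaining after three washes detected by MTT reduction at 570 nm, corrected for no-cell wells, giving dose response.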
# [2] = thioether peptide dimers, Table 7
# [3] = thioether monomer peptides, Table 6
SMILES,"half-life ([1]; dimers, Table 7) [h]",IC50 (RPMI 8866 cells; [2]) [nM],"half-life ([1]; monomers, Table 6) [h]",IC50 (RPMI 8866 cells; [3]) [nM],"half-life at 22 μM ([1]; dimers, Table 7) [h]"
"COC(=O)CC[C@H](NC(=O)[C@@H]1Cc2ccccc2CN1C(=O)[C@@H]1CSCc2ccccc2C(=O)N(C)[C@@H](CCCNC(=N)N)C(=O)N[C@@H](CO)C(=O)N[C@@H](CC(=O)O)C(=O)N[C@@H]([C@@H](C)O)C(=O)N[C@@H](CC(C)C)C(=O)N1)C(=O)N[C@H](CCCCNC(=O)COCC(=O)NCCCC[C@@H](NC(=O)[C@H](CCC(=O)OC)NC(=O)[C@@H]1Cc2ccccc2CN1C(=O)[C@@H]1CSCc2ccccc2C(=O)N(C)[C@@H](CCCNC(=N)N)C(=O)N[C@@H](CO)C(=O)N[C@@H](CC(=O)O)C(=O)N[C@@H]([C@@H](C)O)C(=O)N[C@@H](CC(C)C)C(=O)N1)C(=O)O)C(=O)O [compound 220] (I: [NMeR]SDTLC[Tic]E(OMe)[dK]-OH / II: [NMeR]SDTLC[Tic]E(OMe)[dK]-OH; linker I:9-II:9 via Diglycolyl; linker I:N-I:6, II:N-II:6 via X1)",> 3,< 25,–,–,–
Cc1ccc(C[C@H](NC(=O)[C@H]2NC(=O)[C@H](CC(C)C)NC(=O)[C@H]([C@@H](C)O)NC(=O)[C@H](CC(=O)O)NC(=O)[C@H](CO)NC(=O)[C@H](CCCNC(=N)N)N(C)C(=O)c3ccccc3CSC2(C)C)C(=O)N[C@@H](CCC(=O)O)CC(N)=O)cc1 [compound 132] ([NMeR]SDTL[Pen][Phe(4-Me)][β3hE]-NH2; linker N-6 via X1),–,–,> 3,< 25,–
Cc1cccc(C[C@H](NC(=O)[C@H]2NC(=O)[C@H](CC(C)C)NC(=O)[C@H]([C@@H](C)O)NC(=O)[C@H](CC(=O)O)NC(=O)[C@H](CO)NC(=O)[C@H](CCCNC(=N)N)N(C)C(=O)c3ccccc3CSC2(C)C)C(=O)N[C@@H](CCC(=O)O)CC(N)=O)c1 [compound 125] ([NMeR]SDTL[Pen][Phe(3-Me)][β3hE]-NH2; linker N-6 via X1),–,–,> 3,< 25,–
"CC(C)C[C@@H]1NC(=O)[C@H]([C@@H](C)O)NC(=O)[C@H](CC(=O)O)NC(=O)[C@H](CO)NC(=O)[C@H](CCCNC(=N)N)N(C)C(=O)c2ccccc2CSC[C@@H](C(=O)N2Cc3ccccc3C[C@H]2C(=O)N[C@H](CCCCN)C(N)=O)NC1=O [compound 216] (HELM PEPTIDE1{[meR].S.D.T.L.C.[Tic].[dK].[am]}|CHEM1{[O=C(c1ccccc1C[*:2])[*:1]]}$PEPTIDE1,CHEM1,1:R1-1:R1|PEPTIDE1,CHEM1,6:R3-1:R2$$$V2.0)",–,< 25,–,–,> 3
"CC(C)C[C@@H]1NC(=O)[C@H]([C@@H](C)O)NC(=O)[C@H](CC(=O)O)NC(=O)[C@H](CO)NC(=O)[C@H](CCCNC(=N)N)N(C)C(=O)c2ccccc2CSC(C)(C)[C@@H](C(=O)N[C@H](Cc2ccccc2)C(=O)N[C@@H](Cc2ccc3ccccc3c2)C(=O)N[C@H](CCCCNC(=O)COCC(=O)NCCCC[C@@H](NC(=O)[C@H](Cc2ccc3ccccc3c2)NC(=O)[C@@H](Cc2ccccc2)NC(=O)[C@H]2NC(=O)[C@H](CC(C)C)NC(=O)[C@H]([C@@H](C)O)NC(=O)[C@H](CC(=O)O)NC(=O)[C@H](CO)NC(=O)[C@H](CCCNC(=N)N)N(C)C(=O)c3ccccc3CSC2(C)C)C(N)=O)C(N)=O)NC1=O [compound 162] (I: [NMeR]SDTL[Pen][dF][2Nal][dK]-NH2 / II: [NMeR]SDTL[Pen][dF][2Nal][dK]-NH2; linker I:9-II:9 via Diglycolyl; linker I:N-I:6, II:N-II:6 via X1)",–,100 to 1000,–,–,> 3
